Data: patent publication US20110002989A1, “METHODS, DOSAGE FORMS AND KITS FOR ADMINISTERING ZIPRASIDONE WITHOUT FOOD” (Pfizer Inc., priority 2008, published 2011)
Structures can show the parent of a compound that is named as a salt.

Columns and labels:
[1] = In vitro dissolution test in 0.01 N HCl simulated gastric buffer pH 2.0 (MDC and AUC90); format: physicochemical; details: for AUC90 / MDC: 200 μgA/mL if all dissolved, pH 2.0, 37° C., 100 rpm; for AUC Enhancement Relative to Control 1: AUC90, pH 2.0 simulated gastric buffer; for AUC Enhancement Relative to Control 1 / MDC Enhancement Relative to Control 1: 37° C.; for MDC Enhancement Relative to Control 1: pH 2.0 simulated gastric buffer
Description: An in vitro dissolution test may be performed by adding the test form of ziprasidone to a dissolution test media consisting of a simulated gastric buffer (GB) solution of 0.01 N HCl at pH 2.0.
In such a test, two end-points are assessed: 1) the maximum dissolved drug concentration (MDC) of ziprasidone in the test media, and 2) the area under the concentration versus time curve of dissolved ziprasidone in the in vitro dissolution test. More specifically, in the in vitro use environment, the concentration of dissolved ziprasidone over any 90-minute period from about 0 to about 270 minutes following introduction to the use environment is measured.
An in vitro test to evaluate enhanced ziprasidone dissolution rate in aqueous solution can be conducted by adding with agitation a sufficient quantity of test ziprasidone form to the test medium, such that if all the ziprasidone dissolved, the theoretical concentration of ziprasidone would exceed the equilibrium concentration provided by the control ziprasidone form by a factor of at least 2, and preferably by a factor of at least 10. Performing the test at this concentration will ensure that the MDC of ziprasidone can be determined.
Then, the concentration of dissolved ziprasidone is measured as a function of time by sampling the test medium and plotting ziprasidone concentration in the test medium versus time so that the dissolution rate can be ascertained. The MDC is taken to be the maximum value of dissolved ziprasidone measured over the duration of the test.
During such a test, the concentration of “dissolved drug” should be measured using standard analytical techniques, including high-performance liquid chromatography (HPLC), ultraviolet (UV) absorption, or other standard methods known in the art. When using solution techniques, such as HPLC, the test solution should be either filtered or centrifuged, to avoid large drug particulates that would give an erroneous determination.
“Dissolved drug” is typically taken as that material that either passes a 0.45 μm syringe filter or, alternatively, the material that remains in the supernatant following centrifugation. Filtration can be conducted using a 13 mm, 0.45 μm polyvinylidine difluoride syringe filter sold by Scientific Resources under the trademark TITAN®. Centrifugation is typically carried out in a polypropylene microcentrifuge tube by centrifuging at 13,000 G for 60 seconds. Other similar filtration or centrifugation methods can be employed and useful results obtained. For example, using other types of microfilters may yield values somewhat higher or lower (±10-40%) than that obtained with the filter specified above but will still allow identification of preferred dissolution rate-improved forms.
A specific example of a dissolution test for ascertaining solubility and dissolution rate of a test ziprasidone form is as follows: First, a sufficient amount of the test form is placed into a dissolution flask such that the concentration of ziprasidone would have been 200 μgA/mL if all the ziprasidone dissolved. A simulated GB solution at pH 2.0 is then added and the mixture stirred at a stirred speed of 100 rpm. The test is performed at 37° C. Using UV probes, the concentration of dissolved ziprasidone is then measured over time for at least 90 minutes. The formulation is considered to be a solubility-improved form or dissolution rate-improved form of ziprasidone if it provides at least one of (1) a MDC that is greater than that of the control, (2) an AUC90 that is greater than that of the control, or (3) both (1) and (2). The control formulation, as discussed above, is crystalline ziprasidone HCl monohydrate as is used in the GEODON/ZELDOX™ commercial capsules.
The following test was used to evaluate various ziprasidone formulations. […]

[2] = depending on the dose, healthy volunteers; cited from earlier work

O=C1Cc2cc(CCN3CCN(c4nsc5ccccc45)CC3)c(Cl)cc2N1 [Control 1, ziprasidone hydrochloride monohydrate, reference compound]
AUC90 ([1]; hydrochloride monohydrate): 1.6 mg·min/mL
MDC ([1]; hydrochloride monohydrate): 25 μgA/mL

ziprasidone tartrate [Example 9]
AUC90 [1]: 6.1 mg·min/mL
MDC [1]: 91 μgA/mL
AUC Enhancement Relative to Control 1 [1]: 3.7 fold
MDC Enhancement Relative to Control 1 [1]: 3.6 fold

NC(CC(=O)O)C(=O)O.O=C1Cc2cc(CCN3CCN(c4nsc5ccccc45)CC3)c(Cl)cc2N1 [Example 10, ziprasidone aspartate]
AUC90 [1]: 6.1 mg·min/mL
MDC [1]: 76 μgA/mL
AUC Enhancement Relative to Control 1 [1]: 3.7 fold
MDC Enhancement Relative to Control 1 [1]: 3.0 fold

O=C1Cc2cc(CCN3CCN(c4nsc5ccccc45)CC3)c(Cl)cc2N1 [Ziprasidone, 5-[2-[4-(1,2-benzisothiazol-3-yl)-1-piperazinyl]ethyl]-6-chloro-1,3-dihydro-2H-indol-2-one]
enhanced absorption when given with food [2]: approximately 100%

O=C1Cc2cc(CCN3CCN(c4nsc5ccccc45)CC3)c(Cl)cc2N1 [Example 7, ziprasidone free base]
AUC90 [1]: 7.0 mg·min/mL
MDC [1]: 85 μgA/mL
AUC Enhancement Relative to Control 1 [1]: 4.3 fold
MDC Enhancement Relative to Control 1 [1]: 3.3 fold

ziprasidone succinate [Example 12]
AUC90 [1]: 4.9 mg·min/mL
MDC [1]: 59 μgA/mL
AUC Enhancement Relative to Control 1 [1]: 3.0 fold
MDC Enhancement Relative to Control 1 [1]: 2.3 fold

ziprasidone citrate [Example 11]
AUC90 [1]: 2.4 mg·min/mL
MDC [1]: 33 μgA/mL
AUC Enhancement Relative to Control 1 [1]: 1.5 fold
MDC Enhancement Relative to Control 1 [1]: 1.3 fold

O=C1Cc2cc(CCN3CCN(c4nsc5ccccc45)CC3)c(Cl)cc2N1 [Example 6, ziprasidone mesylate]
AUC90 [1]: 9.0 mg·min/mL
MDC [1]: 140 μgA/mL
AUC Enhancement Relative to Control 1 [1]: 5.5 fold
MDC Enhancement Relative to Control 1 [1]: 5.5 fold

ziprasidone tosylate [Example 8]
AUC90 [1]: 3.8 mg·min/mL
MDC [1]: 54 μgA/mL
AUC Enhancement Relative to Control 1 [1]: 2.3 fold
MDC Enhancement Relative to Control 1 [1]: 2.1 fold
